The test has as its system Cynomolgus monkeys. Description: Bilirubin Monkey Test. The format is in vivo. The method, then:
The product of Example 4 was formulated in 5% DMSO: 2% Tween 80: 10% SBE-CD with 1 molar equiv of HCl at 6 mg/ml and dosed at 30 mg/kg. Cynomolgus monkeys (each group n=6) had baseline blood drawn at day 0 at 9 am. On day 1, the monkeys were fed their morning meal at 7 am. After 1 hour, all left over food was removed and fast was begun. There was twice a day oral dosing of compound or vehicle on day 1 and day 2 of the fast, on day 3 there was an oral dose the morning (8 am) before the blood draw (9 am). Food was returned to the monkeys at this point. Oral dosing occurred at approximately 8:00 a.m. and 4:00 p.m. administered by oral gavage. Serum chemistries were screened on baseline and end of treatment blood draws. Significant changes were detected in bilirubin levels. Bilirubin increased in the fasted state, as expected (total, direct, and indirect bilirubin changed 2.0-, 2.4- and 1.92-fold, respectively over baseline).

Setting [1] is: fasted cynomolgus monkeys, 30 mg/kg oral gavage twice a day, end of treatment (day 3) vs baseline.
[2] abbreviates: serum, 48 hr fast, 30 mg/kg oral twice a day, n=6.

For the molecule `O=C(O)c1ccc2nc(NC(c3ccccc3)c3ccccc3)n(CCc3ccccc3)c2c1.O=S(=O)(O)O` [Example 4, 2-[(diphenylmethyl)amino]-1-(2-phenylethyl)-1H-benzimidazole-6-carboxylic acid sulfate], under setting [1], the “direct bilirubin change over baseline” value is listed as 4.71 fold, the “indirect bilirubin change over baseline” value is listed as 3.53 fold and the “total bilirubin change over baseline” value worked out at 3.74 fold. Moreover, under setting [2], the “DBIL (direct bilirubin)” value is 0.165 ± 0.01 mg/dL, the “IBIL (indirect bilirubin)” value was 0.565 ± .036 mg/dL and the “TBIL (total bilirubin)” value came to 0.73 ± 0.04 mg/dL.

The record behind these values is US20100105749A1, “CHEMICAL COMPOUNDS, PHARMACEUTICAL COMPOSITIONS AND METHODS” (SMITHKLINE BEECHAM CORPORATION, priority 2007, published 2010).
